This is an account of results in US20100324152A1, “USE OF 1,2-DECANEDIOL FOR SEBUM REDUCTION AND COSMETIC AND/OR DERMATOLOGICAL FORMULATIONS COMPRISING 1,2-DECANEDIOL” (priority 2006, published 2010).

The subject of one data set is P. acnes. The note with it: reported in EP 1 598 064 A1; cited from earlier work.
Data set [1] is described as follows: Dropping point of a model sebum containing 1,2-decanediol (AOCS Cc 18-80/ASTM D 3954). It is filed as physicochemical. As to conditions: addition of 20 wt. % 1,2-decanediol to model sebum, versus 1,2-decanediol-free model sebum. The text has this:
To check the extent to which 1,2-decanediol has a sebum-fluidizing property and is therefore capable of reducing the sebum concentration on the skin surface, and in particular in the sebaceous gland follicles, by a physical route, the influence of 1,2-decanediol on the dropping point of a model sebum was first investigated. On the basis of these publications, a model […] was developed which substantially comprises saturated and unsaturated free fatty acids, wax-like substances, triglycerides and cholesterol and, in detail, is composed of the following substances: palmitic acid, oleic acid, stearic acid, squalene, myristyl myristate, cetyl palmitate, tripalmitin, triolein and cholesterol. The exact quantitative composition of the model sebum (contents of the individual substances in per cent by weight; wt. %) can be seen from the following Table 1. [table] To investigate the influence of 1,2-decanediol on the physical properties of the model sebum, 20 wt. % 1,2-decanediol was added to the model sebum. The dropping points of the 1,2-decanediol-free model sebum and the model sebum sample containing 20 wt. % 1,2-decanediol were then determined using the method for dropping point determination according to AOCS Cc 18-80/ASTM D 3954.

On to `CCCCCCCCC(O)CO` (centres unmarked) [1,2-decanediol], for which the “antibacterial action in the suspension test” value with P. acnes is “as good as no antibacterial action”. Also, the “reduction of the dropping point of model sebum” value in data set [1] worked out at 12.7 °C.
